In patent US20230210110A1, “METHOD FOR INDUCING ENVIRONMENTAL STRESS TOLERANCE IN PLANTS” (AJINOMOTO CO., INC., priority 2020, published 2023):
“Also recorded” adds a separate entry of the source.

Key:
[1] = test system: RD29A, RD29B, MAPKKK18, ABF3F and SLAC1 genes; experiment: Induction of expression of environmental stress tolerance (ABA-responsive) genes, real-time PCR, relative to GAPDH; assay type: in vivo, Arabidopsis thaliana
Protocol: (§1) Four to six young Arabidopsis thaliana plants grown on a 50% concentration MS (Murashige-Skoog) agar medium were transferred to a 6-well plate containing a 50% concentration MS (Murashige-Skoog) liquid medium and pre-cultured for 16 hours, then added with a treatment solution containing each amino acid alone or a treatment solution containing a combination of each amino acid and ABA, and left for 6 hours. Then, RNA was then isolated from the plants with a nucleic acid purification kit (Promega, Maxwell (registered trademark) 16 LEV simplyRNA Tissue Kit). Then, cDNA was synthesized with a cDNA synthesis reagent for real-time PCR (Toyobo, ReverTra Ace (registered trademark) qPCR RT Master Mix).
MAPKKK18 is a gene encoding a kinase (MAPKKK18, MITOGEN-ACTIVATED PROTEIN KINASE KINASE KINASE 18) that functions in the ABA signaling pathway of Arabidopsis thaliana (Zelicourt A. et al., Trends in Plant Science 21: (2016)). RD29A and RD29B are genes encoding hydrophilic proteins (RESPONSIVE TO DESICCATION 29A, RESPONSIVE TO DESICCATION 29B) that are responsive for ABA and environmental stress such as drought stress and salinity stress and considered to be involved in stress tolerance and senescence suppression (Yang S. D. et al., Plant Cell 6: 2155-2168 (2011)). ABF3 is a gene encoding a transcription factor (ABA-responsive element-binding protein) that regulates expression of ABA-responsive genes (Yoshida T. et al., Plant, cell and Environment 38: 35-49 (2015)). SLAC1 is a gene encoding an anion channel involved in stomatal closure (Yoshida et al., J Plant Res (2016) 129:39-49). GAPDH is a glyceraldehyde-3-phosphate dehydrogenase gene and was selected as an internal standard.
The expression levels of the genes were calculated as relative expression levels to the GAPDH gene. Twenty amino acids were divided into 10 each, and the gene expression inducing activity when combined with ABA was evaluated in two tests (n=2).
(§2) The expression levels of the respective genes were calculated as relative expression levels to the GAPDH gene in the same manner as in Example 1.
Separately, Arabidopsis thaliana was treated with a combination of 0.1 mM, 0.25 mM, 1 mM, 2.5 mM, 10 mM, or 25 mM of Lys and 0.25 μM of ABA in the same manner as in Example 1, and expression of MAPKKK18, RD29A, and RD29B genes after 6 hours of treatment was analyzed (n=3). The expression levels of the respective genes were calculated as relative expression levels to the GAPDH gene in the same manner as in Example 1. […]
as §2, §2

[2] = test system: tomato (variety Caramba); experiment: Yield of tomato under drought stress, greenhouse pot test; assay type: in vivo; settings: for Yield (g/plot accumulation): drought stress 50% water, four foliar sprays, ABA is (S)-(+)-abscisic acid, Lys is L-Lys hydrochloride, control with drought 924.2; for % to T2: yield relative to control with drought stress (T2)
Protocol: A pot test of tomato was carried out in a greenhouse in Valencia, Spain. The test was carried out using 20 pots (=20 replications) of tomatoes grown on pots of 0.3 m^2 size. The variety of tomato used was Caramba. Abscisic acid used was (S)-(+)-abscisic acid and Lys used was L-Lys hydrochloride. Foliar spray treatments were carried out four times. The first treatment was carried out at time 61 on the BBCH scale (BBCH61: when the first flower of the first inflorescence bloomed), the second treatment was carried out 21 days after the first treatment, the third treatment was carried out 14 days after the second treatment, and the fourth treatment was carried out 14 days after the third treatment. A harvest survey was carried out at time 82 on the BBCH scale (BBCH82: when 20% of the fruit were fully ripe and colored).

[3] = test system: RD29A, RD29B, MAPKKK18, ABF3F and SLAC1 genes; experiment: Induction of expression of environmental stress tolerance (ABA-responsive) genes, real-time PCR, relative to GAPDH; assay type: in vivo, Arabidopsis thaliana; settings: amino acid alone or combination with ABA, 6 hours, n=3
[4] = test system: Arabidopsis thaliana; experiment: Drought stress tolerance: dehydration amount during cultivation without water supply; assay type: in vivo; settings: spray, control approximately 77%
Protocol: A test for verifying an effect of conferring drought stress tolerance by a combination of Lys and ABA was carried out (n=4). For Arabidopsis thaliana grown on rockwool under short-day conditions for 35 days, the weight of the rockwool and the whole plant was measured, to determine the initial weight. Arabidopsis thaliana was spray treated with 2.5 mM of Lys and 5 μM or 50 μM of ABA alone or in combination (first spray treatment). As a control treatment group, Arabidopsis thaliana was spray treated with DMSO (first spray treatment). After the first spray treatment, cultivation was continued for 7 days without water supply. During cultivation, a second spray treatment was carried out 4 days after the first spray treatment. The weight of the rockwool and the whole plant was measured 4 and 7 days after the first spray treatment, to determine the post-cultivation weight. The post-cultivation weight was subtracted from the initial weight, to determine the dehydration amount during cultivation.

[5] = test system: Arabidopsis thaliana; experiment: Drought stress tolerance: survival rate after drought and re-watering; assay type: in vivo; settings: 12 days after spray, water supplied again at 9 days; 50 μM ABA (2.5 mM Lys in the combination); Mock 8.5%
Protocol: A test for verifying an effect of conferring drought stress tolerance by a combination of Lys and ABA was carried out. Arabidopsis thaliana grown on rockwool under short-day conditions for 35 days was spray treated with 50 μM of ABA alone or with 2.5 mM of Lys and 50 μM of ABA in combination. As a control treatment group (Mock), Arabidopsis thaliana was spray treated with DMSO. After the spray treatment, cultivation was continued without water supply, to subject Arabidopsis thaliana to drought stress. Water was again supplied to Arabidopsis thaliana 9 days after the spray treatment, and the survival rate was measured 12 days after the spray treatment (n=94-96).

[6] = test system: Wheat (Norin 61); experiment: Drought stress tolerance of wheat: water loss and survival rate; assay type: in vivo; settings: 10 μM ABA (2.5 mM Lys in the combination)
Protocol: A test for verifying an effect of conferring drought stress tolerance by a combination of Lys and ABA in wheat was carried out. Wheat (Norin 61) grown on rockwool under long-day conditions for 13 days was spray treated with 10 μM of ABA alone or with 2.5 mM or 10 mM of Lys and 10 μM of ABA in combination. As a control treatment group (Mock), the wheat was spray treated with DMSO. After the spray treatment, cultivation was continued without water supply, to subject wheat to drought stress. During cultivation, the water loss from the rockwool was measured. Water was again supplied to the wheat 21 days after the spray treatment, and the survival rate was measured 23 days after the spray treatment (n=24).

[7] = test system: RD29B and MAPKKK18; experiment: Effect of Lys derivatives and nitrogen-containing compounds on induction of environmental stress tolerance genes by ABA (activity level); assay type: in vivo, Arabidopsis thaliana; settings: total of induction activities of RD29B and MAPKKK18 with 1 mM compound and 0.25 μM ABA, relative to ABA alone taken as 1; >1 enhanced, 1 no effect, <1 suppressed
Protocol: as §1
GAPDH is a glyceraldehyde-3-phosphate dehydrogenase gene and was selected as an internal standard.
Lys or each Lys derivative is used for treatment at 1 mM and ABA at 0.25 μM.

[8] = MAPKKK18, RD29A, RD29B, 0.05-2.5 mM Lys with 0.25 μM ABA, 6 hours, upper panel of FIG. 3

For `NCCCC[C@H](N)C(=O)O` [No. 1, lysine], the “activity of synergistically enhancing the effect of the natural-type ABA” value ([1]; Lys in combination with natural-type ABA ((S)-(+)-ABA)) was “synergistically enhance the effect of the natural-type ABA”, the “Lys concentrations at which Lys concentration-dependent improvement in expression inducing activity was observed” value [1, 8] was no less than 0.25 mM and the “Lys concentrations at which no improvement in expression inducing activity was observed” value [1, 8] was no more than 0.1 mM. The “Lys concentration-dependent improvement in expression inducing activity” value ([1]; MAPKKK18, RD29A, RD29B, 0.1-25 mM Lys with 0.25 μM ABA, 6 hours, lower panel of FIG. 3) was “at least up to Lys concentrations of 10 mM or 25 mM”, the “effect of Lys on inducing expression of environmental stress tolerance genes by ABA” value ([1]; MAPKKK18 and RD29B, 1 mM Lys in combination with 0.25 μM ABA, 6 hours) was “enhanced” and the “effect of Lys on inducing expression of environmental stress tolerance genes by ABA agonist” value ([1]; MAPKKK18 and RD29B, 1 mM Lys in combination with opabactin (OP), 6 hours) was “enhanced”. For the same molecule, the “effect of Lys on inducing expression of environmental stress tolerance genes by ABA agonist” value ([1]; MAPKKK18 and RD29B, 1 mM Lys in combination with quinabactin (QB), 6 hours) was “enhanced”, the “activity of synergistically enhancing the effect of ABA” value ([1]; RD29B expression, amino acid in combination with ABA, listed as Lys) was “synergistically enhance the effect of ABA; also recorded: significantly high activity” and the “effect of enhancing the ABA activity by Lys” value ([1]; wild-type strain, 0.5 mM Lys with 0.25 μM ABA, 6 hours) was “observed”. For the same molecule, the “Yield (g/plot accumulation)” value ([2]; 10 μM ABA and/or 2.5 mM Lys) was 1089.3 g/plot, the “Yield (g/plot accumulation)” value ([2]; 100 μM ABA and/or 25 mM Lys) was 1114.6 g/plot and the “% to T2” value ([2]; 10 μM ABA and/or 2.5 mM Lys) was 117.9%. The “% to T2” value ([2]; 100 μM ABA and/or 25 mM Lys) was 120.6% and the “activity to induce expression of the environmental stress tolerance gene RD29B” value [3] was “No activity”.
With `CC1=CC(=O)CC(C)(C)C1(O)/C=C/C(C)=C\C(=O)O` (racemic) [ABA, abscisic acid, reference compound] the “Expression induction of RD29A and RD29B genes by ABA” value ([1]; wild-type strain (WT, Col-0), 0.25 μM ABA, 6 hours) was “observed”, the “dehydration amount on the 4th day” value ([4]; 5 μM ABA (2.5 mM Lys in the combination)) was “approximately 80.1%” and the “dehydration amount on the 4th day” value ([4]; 50 μM ABA (2.5 mM Lys in the combination)) was “approximately 57%”. The survival rate [5] was 13.5%, the survival rate ([6]; 23 days after spray, water supplied again at 21 days, Mock 9.4%) was 6.7% and the “dehydration amount on the 5th day” value ([6]; spray, control approximately 84%) was “approximately 61%”. The “dehydration amount on the 6th day” value ([6]; spray, control approximately 91%) was “approximately 82%”, the “Yield (g/plot accumulation)” value ([2]; 10 μM ABA and/or 2.5 mM Lys) was 1008.1 g/plot and the “Yield (g/plot accumulation)” value ([2]; 100 μM ABA and/or 25 mM Lys) was 1081.6 g/plot. The “% to T2” value ([2]; 10 μM ABA and/or 2.5 mM Lys) was 109.1%, the “% to T2” value ([2]; 100 μM ABA and/or 25 mM Lys) was 117.0% and the Activity level [7] was 1.
